This test concerns the target Human TRPA1 (Homo sapiens, UniProt O75762). Nature of the test: Assay 1: In vitro cellular testing of TRPA1 modulation (CHO-TREx, Fluo-3 calcium fluorescence, AITC agonist). The conditions noted are these: CHO-TREx cells expressing human TRPA1; Fluo-3 fluorescence (FLIPR/Tetra); agonist 15 μM allyl isothiocyanate (AITC); 30 minute antagonist incubation. Also noted: expressed in transfected cells; host or cells: CHO-TREx cells (Invitrogen), vector pcDNA4/TO. In kind it is cell-based. In a few lines:
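Antagonist potency is the 50% reduction of the AITC (15 μM) calcium response, Hill-fitted against no-antagonist and 10 μM ruthenium red controls. Fluo-3-loaded (4 μM) CHO-TREx cells with tetracycline-inducible human TRPA1 got compound in HEPES saline pH 7.4 for 30 min, usually from 10 μM in three-fold dilutions.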
Human TRPA1, sequence (O75762 whole entry): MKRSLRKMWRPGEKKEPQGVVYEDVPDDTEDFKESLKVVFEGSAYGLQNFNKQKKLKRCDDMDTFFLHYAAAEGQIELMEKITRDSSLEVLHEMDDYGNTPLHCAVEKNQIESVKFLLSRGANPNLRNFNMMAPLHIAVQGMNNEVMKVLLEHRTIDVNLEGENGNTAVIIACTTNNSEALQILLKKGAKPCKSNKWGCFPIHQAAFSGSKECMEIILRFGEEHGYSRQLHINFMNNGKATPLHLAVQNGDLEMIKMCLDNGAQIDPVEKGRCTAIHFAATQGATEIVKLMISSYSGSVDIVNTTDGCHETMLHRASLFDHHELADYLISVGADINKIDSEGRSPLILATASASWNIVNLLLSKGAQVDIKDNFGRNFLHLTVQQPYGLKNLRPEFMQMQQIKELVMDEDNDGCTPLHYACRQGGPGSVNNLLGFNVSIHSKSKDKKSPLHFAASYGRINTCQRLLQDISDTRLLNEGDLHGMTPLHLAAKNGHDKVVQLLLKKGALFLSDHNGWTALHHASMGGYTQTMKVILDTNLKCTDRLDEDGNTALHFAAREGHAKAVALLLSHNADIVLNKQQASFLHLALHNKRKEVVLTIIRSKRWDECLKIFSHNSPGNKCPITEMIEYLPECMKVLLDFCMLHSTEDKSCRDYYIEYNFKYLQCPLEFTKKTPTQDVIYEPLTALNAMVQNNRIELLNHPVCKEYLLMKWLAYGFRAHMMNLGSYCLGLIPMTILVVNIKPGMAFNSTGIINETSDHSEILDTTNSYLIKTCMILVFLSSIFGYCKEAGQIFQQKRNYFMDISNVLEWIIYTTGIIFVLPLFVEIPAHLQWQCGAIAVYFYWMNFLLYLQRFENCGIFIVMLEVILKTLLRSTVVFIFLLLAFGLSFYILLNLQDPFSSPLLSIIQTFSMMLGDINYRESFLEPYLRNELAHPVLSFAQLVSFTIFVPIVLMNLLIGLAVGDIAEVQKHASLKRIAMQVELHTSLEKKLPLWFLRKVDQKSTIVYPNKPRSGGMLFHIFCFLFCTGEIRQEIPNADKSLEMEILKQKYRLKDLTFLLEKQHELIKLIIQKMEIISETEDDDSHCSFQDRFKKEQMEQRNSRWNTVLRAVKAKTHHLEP
Regarding `O=C(NCc1cc(-c2ccc(C(F)(F)F)cc2)nc(OCCN2CCCC2)n1)[C@@H]1CCCN1S(=O)(=O)c1ccc(Cl)s1` [Example 62, 1-(5-Chloro-thiophene-2-sulfonyl)-pyrrolidine-2S-carboxylic acid [2-(2-pyrrolidin-1-yl-ethoxy)-6-(4-trifluoromethyl-phenyl)-pyrimidin-4-ylmethyl]-amide], the IC50 (in general, the concentration that inhibits the measured activity by half) stood at 3210 nM.
Take `N#Cc1ccc(-c2cccc(CNC(=O)[C@@H]3CCCN3S(=O)(=O)c3ccc(F)cc3)c2)cc1` [Example 86, 1-(4-Fluoro-benzenesulfonyl)-pyrrolidine-2S-carboxylic acid (4′-cyano-biphenyl-3-ylmethyl)-amide]: the half-maximal inhibitory concentration (IC50) was 85 nM.
As for `CC(C)N1CCC(CN(C)c2nc(CNC(=O)[C@@H]3CCCN3S(=O)(=O)c3ccc(Cl)s3)cc(-c3ccc(C(F)(F)F)cc3)n2)CC1` [Example 55, 1-(5-Chloro-thiophene-2S-sulfonyl)-pyrrolidine-2S-carboxylic acid [2-[(1-isopropyl-piperidin-4-ylmethyl)-methyl-amino]-6-(4-trifluoromethyl-phenyl)-pyrimidin-4-ylmethyl]-amide], the IC50 came to 2550 nM.
`O=C(NCc1cc(-c2ccc(C(F)(F)F)cc2)nc(N2CCN(Cc3ccccn3)CC2)c1)[C@@H]1C=CCN1S(=O)(=O)c1ccc(F)cc1` [Example 353, (2S)-1-[(4-Fluorophenyl)sulfonyl]-N-({2-[4-(pyridin-2-ylmethyl)piperazin-1-yl]-6-[4-(trifluoromethyl)phenyl]pyridin-4-yl}methyl)-2,5-dihydro-1H-pyrrole-2-carboxamide]: the IC50 was 2750 nM.
For `O=C(NCc1cc(-c2ccc(C(F)(F)F)cc2)ccn1)[C@@H]1C=CCN1S(=O)(=O)c1ccc(Cl)s1` [Example 144, 1-(5-Chloro-thiophene-2-sulfonyl)-2,5-dihydro-1H-pyrrole-2S-carboxylic acid [4-(4-trifluoromethyl-phenyl)-pyridin-2-ylmethyl]-amide], the IC50 was 22 nM.
Turning to `O=C(NCc1ccnc(-c2ccc(C(F)(F)F)cc2)c1)[C@@H]1CCCN1S(=O)(=O)c1ccc(Cl)s1` [Example 124, 1-(5-Chlorothiophene-2-sulfonyl)pyrrolidine-2S-carboxylic acid [2-(4-trifluoromethylphenyl)-pyridin-4-ylmethyl]-amide], the IC50 is 11 nM.
Turning to `C[C@H]1CCCN1c1nc(CNC(=O)[C@@H]2CCCN2S(=O)(=O)c2ccc(F)cc2)cc(-c2ccc(C(F)(F)F)cc2)n1` [Example 26, 1-(4-Fluoro-benzenesulfonyl)-pyrrolidine-2S-carboxylic acid [2-(2S-methyl-pyrrolidin-1-yl)-6-(4-trifluoromethyl-phenyl)-pyrimidin-4-ylmethyl]-amide], the IC50 amounted to 13 nM.
`O=C(NCc1cc(-c2ccc(OC(F)(F)F)cc2)ccn1)[C@@H]1CCCN1S(=O)(=O)c1ccc(F)cc1` [Example 137, 1-(4-Fluoro-benzenesulfonyl)-pyrrolidine-2S-carboxylic acid [4-(4-trifluoromethoxy-phenyl)-pyridin-2-ylmethyl]-amide]: the IC50 is 37 nM.
For the compound `O=C(NCc1ccnc(-c2ccc(C(F)(F)F)cc2)c1)[C@@H]1CCCN1S(=O)(=O)c1ccc(F)cc1` [Example 123, 1-(4-Fluoro-benzenesulfonyl)-pyrrolidine-2S-carboxylic acid [2-(4-trifluoromethyl-phenyl)-pyridin-4-ylmethyl]-amide], the IC50 was 32 nM.
The value for `NC(=O)c1ccc(-c2cccc(CNC(=O)[C@@H]3CCCN3S(=O)(=O)c3ccc(F)cc3)c2)cc1` [Example 85, 1-(4-Fluorobenzenesulfonyl)-pyrrolidine-2S-carboxylic acid (4′-carbamoylbiphenyl-3-ylmethyl)-amide] was 14100 nM; that for `CS(=O)(=O)c1ccc(-c2cccc(CNC(=O)[C@@H]3CCCN3S(=O)(=O)c3ccc(F)cc3)c2)cc1` [Example 75, 1-(4-Fluorobenzenesulfonyl)-pyrrolidine-2S-carboxylic acid (4′-methanesulfonylbiphenyl-3-ylmethyl)-amide] was 771 nM.
Regarding `O=C(NCc1cc(-c2ccc(C(F)(F)F)cc2)ncn1)[C@@H]1CCCN1S(=O)(=O)c1ccccc1F` [Example 153, 1-(2-Fluorobenzenesulfonyl)-pyrrolidine-2S-carboxylic acid [6-(4-trifluoromethylphenyl)-pyrimidin-4-ylmethyl]-amide], the IC50 amounted to 401 nM.
Take `O=C(NCc1cc(-c2ccc(C(F)(F)F)cc2)ncn1)[C@@H]1CCCN1S(=O)(=O)c1cccc(F)c1` [Example 154, 1-(3-Fluorobenzenesulfonyl)-pyrrolidine-2S-carboxylic acid [6-(4-trifluoromethylphenyl)-pyrimidin-4-ylmethyl]-amide]: the IC50 was 44 nM.
As for `O=C(NCc1cc(-c2ccc(C(F)(F)F)cc2)nc(N2CCN(Cc3ccccc3Cl)CC2)n1)[C@@H]1CCCN1S(=O)(=O)c1ccc(F)cc1` [Example 50, 1-(4-Fluoro-benzenesulfonyl)-pyrrolidine-2S-carboxylic acid [2-[4-(2-chloro-benzyl)-piperazin-1-yl]-6-(4-trifluoromethyl-phenyl)-pyrimidin-4-ylmethyl]-amide], the IC50 stood at 36 nM.
For the compound `O=C(NCc1cc(-c2ccc(C(F)(F)F)cc2)nc(N2CCN(Cc3ccccc3)CC2)c1)[C@@H]1CCCN1S(=O)(=O)c1ccc(Cl)s1` [Example 367, N-({2-(4-Benzylpiperazin-1-yl)-6-[4-(trifluoromethyl)phenyl]pyridin-4-yl}methyl)-1-[(5-chlorothiophen-2-yl)sulfonyl]-L-prolinamide], the IC50 was 18 nM.
Take `O=C(NCc1cc(-c2ccc(C(F)(F)F)cc2)ncn1)[C@@H]1CCCN1S(=O)(=O)c1ccoc1` [Example 176, 1-(Furan-3-sulfonyl)-pyrrolidine-2S-carboxylic acid [6-(4-trifluoromethylphenyl)-pyrimidin-4-ylmethyl]-amide]: the IC50 is 45 nM.
For the compound `CC(C)COc1nc(CNC(=O)[C@@H]2CCCN2S(=O)(=O)c2ccc(F)cc2)cc(-c2ccc(C(F)(F)F)cc2)n1` [Example 42, 1-(4-Fluoro-benzenesulfonyl)-pyrrolidine-2-carboxylic acid [2-isobutoxy-6-(4-trifluoromethyl-phenyl)-pyrimidin-4-ylmethyl]-amide], the IC50 worked out at 16 nM.
As to `O=C(NCc1cc(-c2ccc(C(F)(F)F)cc2)nc(NC2CCCC2)n1)[C@@H]1CCCN1S(=O)(=O)c1ccc(F)cc1` [Example 193, 1-(4-Fluoro-benzenesulfonyl)-pyrrolidine-2S-carboxylic acid [2-cyclopentylamino-6-(4-trifluoromethyl-phenyl)-pyrimidin-4-ylmethyl]-amide], the IC50 amounted to 85 nM.
`O=C(NCc1cc(-c2ccc(C(F)(F)F)cc2)nc(N2CCN(Cc3ccncc3)CC2)c1)[C@@H]1CC(F)(F)CN1S(=O)(=O)c1ccc(F)cc1` [Example 356, 4,4-Difluoro-1-[(4-fluorophenyl)sulfonyl]-N-({2-[4-(pyridin-4-ylmethyl)piperazin-1-yl]-6-[4-(trifluoromethyl)phenyl]pyridin-4-yl}methyl)-L-prolinamide]: the IC50 was over 10000 nM.
On to `C[C@@H](NC(=O)[C@@H]1CCCN1S(=O)(=O)c1ccc(Cl)s1)c1cccc(-c2ccc(C(F)(F)F)cc2)c1` [Example 116, (1R,2S)-1-(5-Chloro-thiophene-2-sulfonyl)-pyrrolidine-2-carboxylic acid [1-(4′-trifluoromethylbiphenyl-3-yl)ethyl]-amide], for which the IC50 is 386 nM.
